The values below come from patent publication US7713979B2, “Cycloalkyl lactam derivatives as inhibitors of 11-beta-hydroxysteroid dehydrogenase 1” (Eli Lilly and Company, priority 2004, dated 2010).

Experiment [1] has as its target recombinant human 11β-HSD type 1 enzyme (Homo sapiens, UniProt P28845). The experiment is described as follows: 11β-HSD type 1 enzyme assay (NADPH fluorescence). It counts as biochemical. Particulars: three hour incubation at room temperature. As to the method: 11β-HSD Type 1 Enzyme Assay Human 11β-HSD type 1 activity is measured by assaying NADPH production by fluorescence assay. Solid compounds are dissolved in DMSO to a concentration of 10 mM. Twenty microliters of each are then transferred to a column of a 96-well polypropylene Nunc plate where they are further diluted 50-fold followed by subsequent two-fold titration, ten times across the plate with additional DMSO using a Tecan Genesis 200 automated system. Plates are then transferred to a Tecan Freedom 200 system with an attached Tecan Temo 96-well head and an Ultra 384 plate reader. Reagents are supplied in 96-well polypropylene Nunc plates and are dispensed individually into black 96-well Molecular Devices High Efficiency assay plates (40 μL/well capacity) in the following fashion: 9 μL/well of substrate (2.22 mM NADP, 55.5 μM […], 10 mM Tris, 0.25% Prionex, 0.1% Triton X100), 3 μL/well of water to compound wells or 3 μL to control and standard wells, 6 μL/well recombinant human 11β-HSD type 1 enzyme, 2 μL/well of compound dilutions. For ultimate calculation of percent inhibition, a series of wells are added that represent assay minimum and maximum: one set containing substrate with 667 μM carbenoxolone (background), and another set containing substrate and enzyme without compound (maximum signal). Final DMSO concentration is 0.5% for all compounds, controls and standards. Plates are then placed on a shaker by the robotic arm of the Tecan for 15 seconds before being covered and stacked for a three hour incubation period at room temperature. Upon completion of this incubation, the Tecan robotic arm removes each plate individually from the stacker and places them in position for addition of 5 μL/well of a 250 μM carbenoxolone solution to stop the enzymatic reaction. Plates are then shaken once more for 15 seconds then placed into an Ultra 384 microplate reader (355EX/460EM) for detection of NADPH fluorescence.

For experiment [2], the system named is cortisone to cortisol conversion (11β-HSD type 1). The experiment is described as follows: Acute In Vivo Cortisone Conversion Assay. The following applies: mice dosed orally, subcutaneous cortisone challenge 30 mg/kg, serum cortisol by LC-MS/MS. As to the method:
Acute In Vivo Cortisone Conversion Assay
In general, compounds are dosed orally into mice, the mice are challenged with a subcutaneous injection of cortisone at a set timepoint after compound injection, and the blood of each animal is collected some time later. Separated serum is then isolated and analyzed for levels of cortisone and cortisol by LC-MS/MS, followed by calculation of mean cortisol and percent inhibition of each dosing group. Specifically, male C57BL/6 mice are obtained from Harlan Sprague Dawley at average weight of 25 grams. Exact weights are taken upon arrival and the mice randomized into groups of similar weights. Compounds are prepared in 1% w-w HEC, 0.25% w-w polysorbate 80, 0.05% w-w Dow Coming antifoam #1510-US at various doses based on assumed average weight of 25 grams. Compounds are dosed orally, 200 μl per animal, followed by a subcutaneous dose, 200 μl per animal, of 30 mg/kg cortisone at 1 to 24 hours post compound dose. At 10 minutes post cortisone challenge, each animal is euthanized for 1 minute in a CO2 chamber, followed by blood collection via cardiac puncture into serum separator tubes. Once fully clotted, tubes are spun at 2500×g, 4° C. for 15 minutes, the serum transferred to wells of 96-well plates (Coming Inc, Costar #4410, cluster tubes, 1.2 ml, polypropylene), and the plates are frozen at −20° C. until analysis by LC-MS/MS. For analysis, serum samples are thawed and the proteins are precipitated by the addition of acetonitrile containing d4-cortisol internal standard. Samples are vortex mixed and centrifuged. The supernatant is removed and dried under a stream of warm nitrogen. Extracts are reconstituted in methanol/water (1:1) and injected onto the LC-MS/MS system. The levels of cortisone and cortisol are assayed by selective reaction monitoring mode following positive ACPI ionization on a triple quadrupole mass spectrophotometer. […] Examples 91, 135, 119, 15, and 99 were active in the Acute In Vivo Cortisone Conversion Assay.

Sequence of recombinant human 11β-HSD type 1 enzyme (P28845 whole entry): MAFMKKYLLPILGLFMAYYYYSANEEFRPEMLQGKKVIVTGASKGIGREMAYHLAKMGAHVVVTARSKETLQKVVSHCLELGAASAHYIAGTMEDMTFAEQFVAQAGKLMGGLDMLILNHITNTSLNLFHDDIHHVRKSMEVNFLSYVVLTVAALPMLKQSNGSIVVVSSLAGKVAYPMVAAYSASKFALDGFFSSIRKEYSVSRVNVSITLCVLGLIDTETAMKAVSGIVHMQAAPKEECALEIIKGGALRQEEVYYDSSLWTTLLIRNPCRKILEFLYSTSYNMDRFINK

The IC50 is the concentration at which inhibition is half-maximal. `O=C1C(Cc2ccc(-c3ccncc3)cc2Cl)CCN1C1CCCCC1` (centres unmarked): the IC50 in experiment [1] stood at 384 nM.
Still for that read-out and setting: with `CC1CCCCC1N1CCC(Cc2c(Cl)cc(-c3ccncc3)cc2Cl)C1=O` (centres unmarked) the figure was 565 nM; with `O=C1C(Cc2ccc(Cl)cc2Cl)CCN1C1CCC(O)CC1` (centres unmarked), 378 nM.
Still for that read-out and setting: with `O=C1C(Cc2ccc(-c3cccnc3)cc2Cl)CCCN1C1CCCCC1` (centres unmarked) the figure was 494 nM; with `O=C1C(Cc2c(F)cccc2Cl)CCCN1C1CCCCC1` (centres unmarked), 879 nM.
Turning to `O=C1C(Cc2ccc(Cl)cc2Cl)CCN1[C@H]1CC[C@H](O)CC1` (relative stereo) [Example 15, 3-(2,4-Dichloro-benzyl)-1-(trans-4-hydroxy-cyclohexyl)-pyrrolidin-2-one], the “activity in the Acute In Vivo Cortisone Conversion Assay” value (shortened to “activity”) in experiment [2] is on record as “active”.
For the molecule `CC1CCCCC1N1CCC(Cc2c(F)cccc2Cl)C1=O` (centres unmarked) [Example 65], the “activity” value in experiment [2] was “inactive”.
As for `COc1ccc(Cl)c(CC2CCN(C3CCCCC3)C2=O)c1Cl` (centres unmarked) [Example 69], the “activity” value in experiment [2] is “inactive”.
Still for that read-out and setting: with `Cl.O=C1C(Cc2ccc(-c3ccncc3)cc2Cl)CCN1C1CCCCC1` (centres unmarked) [Example 91] the entry was “active”; with `CC1CCCCC1N1CCC(Cc2ccc(-c3cccnc3)cc2Cl)C1=O` (centres unmarked) [Example 99], “active”; with `CC1CCCCC1N1CCC(Cc2c(Cl)cc(-c3ccncc3)cc2Cl)C1=O.Cl` (centres unmarked) [Example 119], “active”.
Same read-out and setting: for `O=C1C(Cc2c(Cl)cc(Cl)cc2Cl)CCN1C1CCC(O)CC1` (centres unmarked) [Example 135] the value was “active”.
Take `O=C1C(Cc2c(Cl)cc(Cl)cc2Cl)CCN1C1CCC(O)CC1` (centres unmarked) [drawing 379]: the IC50 in experiment [1] is 230 nM.
On the same count and under the same terms, with `CC1CCCCC1N1CCC(Cc2ccc(-c3cccnc3)cc2Cl)C1=O` (centres unmarked) [drawing 383] the figure was 273 nM.
